From the supplement of paper PMC10307832

Assays:
Assay in all cases: relative viability (nuclei count vs DMSO), 5 days (fraction); higher = more cells survive
Tipifarnib + Crizotinib = compound: Cn1cncc1[C@@](N)(c1ccc(Cl)cc1)c1ccc2c(c1)c(-c1cccc(Cl)c1)cc(=O)n2C [Tipifarnib] + C[C@@H](Oc1cc(-c2cnn(C3CCNCC3)c2)cnc1N)c1c(Cl)ccc(F)c1Cl [Crizotinib] (partner 1 µM)
In short: (§1)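 For relative viability, nuclei counts in treated wells were divided by those in vehicle wells. Lung cancer cell lines had been pin-tool dosed in 1536-well plates the day after seeding and cultured for 5 days, then fixed and stained in one step (final 0.05% Triton X-100, 1% formaldehyde, 1 ug/ml Hoechst) and imaged at 4×. Doses were one drug alone or a fixed anchor-drug dose plus five library-drug doses (not always all listed) in √10 steps, and values are duplicate-plate medians.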

Tipifarnib + Tozasertib = compound: Cn1cncc1[C@@](N)(c1ccc(Cl)cc1)c1ccc2c(c1)c(-c1cccc(Cl)c1)cc(=O)n2C [Tipifarnib] + Cc1cc(Nc2cc(N3CCN(C)CC3)nc(Sc3ccc(NC(=O)C4CC4)cc3)n2)n[nH]1 [Tozasertib] (partner 0.1 µM)
In short: as §1

Tipifarnib + Navitoclax = compound: Cn1cncc1[C@@](N)(c1ccc(Cl)cc1)c1ccc2c(c1)c(-c1cccc(Cl)c1)cc(=O)n2C [Tipifarnib] + CC1(C)CCC(c2ccc(Cl)cc2)=C(CN2CCN(c3ccc(C(=O)NS(=O)(=O)c4ccc(N[C@H](CCN5CCOCC5)CSc5ccccc5)c(S(=O)(=O)C(F)(F)F)c4)cc3)CC2)C1 [Navitoclax] (partner 0.5 µM)
In short: as §1

Tipifarnib + Vorinostat = compound: Cn1cncc1[C@@](N)(c1ccc(Cl)cc1)c1ccc2c(c1)c(-c1cccc(Cl)c1)cc(=O)n2C [Tipifarnib] + O=C(CCCCCCC(=O)Nc1ccccc1)NO [Vorinostat] (partner 1 µM)
In short: as §1

Row | Cell Line | relative viability (Tipifarnib + Crizotinib; first compound 0.01 µM) | relative viability (Tipifarnib + Crizotinib; first compound 0.03162 µM) | relative viability (Tipifarnib + Crizotinib; first compound 0.1 µM) | relative viability (Tipifarnib + Crizotinib; first compound 0.3162 µM) | relative viability (Tipifarnib + Crizotinib; first compound 1 µM) | relative viability (Tipifarnib + Tozasertib; first compound 0.01 µM) | relative viability (Tipifarnib + Tozasertib; first compound 0.03162 µM) | relative viability (Tipifarnib + Tozasertib; first compound 0.1 µM) | relative viability (Tipifarnib + Tozasertib; first compound 0.3162 µM) | relative viability (Tipifarnib + Tozasertib; first compound 1 µM) | relative viability (Tipifarnib + Navitoclax; first compound 0.01 µM) | relative viability (Tipifarnib + Navitoclax; first compound 0.03162 µM) | relative viability (Tipifarnib + Navitoclax; first compound 0.1 µM) | relative viability (Tipifarnib + Navitoclax; first compound 0.3162 µM) | relative viability (Tipifarnib + Navitoclax; first compound 1 µM) | relative viability (Tipifarnib + Vorinostat; first compound 0.01 µM) | relative viability (Tipifarnib + Vorinostat; first compound 0.03162 µM) | relative viability (Tipifarnib + Vorinostat; first compound 0.1 µM) | relative viability (Tipifarnib + Vorinostat; first compound 0.3162 µM) | relative viability (Tipifarnib + Vorinostat; first compound 1 µM)
1 | HARA | 1.07 | 0.917 | 1 | 1.01 | 1.02 | 0.123 | 0.0922 | 0.102 | 0.0898 | 0.0758 | 1.18 | 1.14 | 1.18 | 1.14 | 1.13 | 0.513 | 0.406 | 0.364 | 0.325 | 0.326
2 | NCI-H2126 | 0.977 | 1.01 | 1.02 | 0.924 | 0.904 | 0.858 | 0.697 | 0.673 | 0.603 | 0.501 | 0.888 | 0.822 | 0.845 | 0.74 | 0.709 | 0.797 | 0.752 | 0.763 | 0.768 | 0.409
3 | LXF-289 | 0.769 | 0.759 | 0.715 | 0.694 | 0.64 | 0.224 | 0.192 | 0.21 | 0.142 | 0.152 | 0.936 | 0.959 | 0.87 | 0.829 | 0.856 | 0.775 | 0.755 | 0.665 | 0.59 | 0.332
4 | NCI-H460 | 1.12 | 0.249 | 0.133 | 0.0704 | 0.0599 | 0.625 | 0.51 | 0.216 | 0.15 | 0.0888 | 1.13 | 0.905 | 0.531 | 0.252 | 0.0922 | 0.734 | 0.329 | 0.283 | 0.116 | 0.116
5 | NCI-H2170 | 1.33 | 1.04 | 1.1 | 0.857 | 0.644 | 0.839 | 0.718 | 0.456 | 0.501 | 0.47 | 0.733 | 0.566 | 0.448 | 0.433 | 0.338 | 0.831 | 0.774 | 0.697 | 0.637 | 0.335
6 | NCI-H2009 | 0.994 | 1.01 | 0.789 | 0.563 | 0.578 | 0.605 | 0.574 | 0.421 | 0.341 | 0.419 | 1.13 | 1.06 | 0.785 | 0.63 | 0.744 | 0.604 | 0.411 | 0.405 | 0.577 | 0.504
